Patent publication US12605359B2, “Proprotein convertase subtilisin/kexin type 9 (PCSK9) inhibitor and pharmaceutical use therefor” (THE KITASATO INSTITUTE, priority 2020, dated 2026)

Experiments:
PCSK9 [1] = test: In vitro PCSK9 inhibition test: Western blot of PCSK9/ProPCSK9 in culture medium and cells of HepG2 cells; type: cell-based, human; settings: HepG2, 24 hours; for PCSK9 (in cells) / PCSK9 (in culture medium) / ProPCSK9 (in cells) / Total PCSK9 amount: percentage with respect to total amount of PCSK9 in the control; for total amount of PCSK9, dependence on the concentration added: 1.0 and 10 micro gram/mL; for total amount of PCSK9, dependence on the concentration added / amount of PCSK9 in the culture medium and the cells, as compared with the control: result in words
Procedure: HepG2 cells derived from human liver cancer (5×10^5 cells/mL, 0.25 mL/well) were seeded on a 48-well plate. Subject compounds: 1,11-O-o-methylbenzylidene-7-O-p-cyanobenzoyl-1,7,11-trideacetyl pyripyropene A (PRD125), 7-p-cyanobenzoyl-7-deacetyl pyripyropene A (PRD017), 7-O-p-cyanobenzoyl-1,11-di(O-isobutyryl)-1,7,11-trideacetyl pyripyropene A (PRD056), and comparative compounds: pyripyropene A (PPPA) and a known statin drug, atorvastatin (Atr), were each added to the wells at a predetermined concentration, and the cells were cultured in a serum-free medium at 37° C. for 24 hours. As a control, the cells were treated in wells in the absense of compound under similar conditions. After culturing, the culture medium and the cells were collected. PCSK9 in the culture medium and the cells was detected by Western blotting. Using an image analysis software (ImageLab), band intensity of the detected PCSK9 was quantified. The quantitative value of each band intensity was corrected based on the quantitative value of the band intensity of glyceraldehyde-3-phosphate dehydrogenase (GAPDH) that is a loading control for Western blotting. In the figure, FIG. 1A indicates the results of detecting PCSK9 and ProPCSK9 in the culture medium and the cells with PRD017 or PRD056 added, and FIG. 1B indicates the results of detecting PCSK9 and ProPCSK9 in the culture medium and the cells with PRD125, Atr, or PPPA added. In FIG. 2, FIG. 2A indicates the results with PRD017 added, FIG. 2B indicates the results with PRD056 added, and FIG. 2C indicates the results with PRD125 added, respectively. In FIG. 3, FIG. 3A indicates the results with Atr added, and FIG. 3B indicates the results with PPPA added, respectively. In the figures, the horizontal axis indicates the concentration of the compound (micro gram/mL) added, and the vertical axis indicates the total amount of PCSK9(%), respectively. The total amount of PCSK9 is a percentage with respect to the total amount of PCSK9 in the control. The values in Table 1 are percentages with respect to the total amount of PCSK9 in the control.

PCSK9 [2] = test: In-vivo PCSK9 inhibition test in high-fat-diet-fed mice; design: species or system mice (C57BL/6J); settings: 10 mg/kg body weight/day in HFD for 8 weeks, versus control group
Procedure: Female and male mice (C57BL/6J) were fed with high-fat diet (HFD) for 4 weeks. The mice were grouped into the control group, the PPPA-administered group and PRD125-administered group (N=20 for males and N=20 for females in each group). The PPPA-administered group and the PRD125-administered group were fed with HFD with each subject compound or a comparative compound added for 8 weeks. The control group was fed only with HFD for 8 weeks. The PPPA was administered at a dose of 50 mg/kg body weight/day, and the PRD125 was administered at a dose of 10 mg/kg body weight/day, respectively. After the completion of the administration period, the blood was collected and the liver was extracted under anesthesia, from the mice of each group. The amount of LDL-cholesterol and the amount of PCSK9 in the blood, and the amount of total cholesterol, the amount of cholesteryl ester, and the amount of triglyceride in the liver were measured. The averages and the standard deviations of the measured values in each group were calculated. Further, the p values for the values of the PPPA-administered group and the PRD125-administered group with respect to the value of the control group were calculated by the student t-test. […]

Molecule | PCSK9 (in cells) (PCSK9 [1]; 1.0 micro gram/mL) [%] | PCSK9 (in culture medium) (PCSK9 [1]; 1.0 micro gram/mL) [%] | ProPCSK9 (in cells) (PCSK9 [1]; 1.0 micro gram/mL) [%] | Total PCSK9 amount (PCSK9 [1]; 1.0 micro gram/mL) [%] | amount of PCSK9 in the culture medium with respect to the amount of PCSK9 in the culture medium of the control (PCSK9 [1]; 10 micro gram/mL) [%] | amount of ProPCSK9 in the cells with respect to the amount of ProPCSK9 in the cells of the control (PCSK9 [1]; 10 micro gram/mL) [%] | PCSK9 (in cells) (PCSK9 [1]; 10 micro gram/mL) [%] | PCSK9 (in culture medium) (PCSK9 [1]; 10 micro gram/mL) [%] | ProPCSK9 (in cells) (PCSK9 [1]; 10 micro gram/mL) [%] | Total PCSK9 amount (PCSK9 [1]; 10 micro gram/mL) [%] | total amount of PCSK9, dependence on the concentration added (PCSK9 [1]) | amount of PCSK9 in the cells with respect to the amount of PCSK9 in the cells of the control (PCSK9 [1]; 10 micro gram/mL) [%] | amount of PCSK9 in the culture medium and the cells, as compared with the control (PCSK9 [1]) | amount of PCSK9 in the blood (PCSK9 [2]; HFD-fed male and female mice) | amount of triglyceride in the liver and the blood (PCSK9 [2]; HFD-fed mice)
7-O-p-cyanobenzoyl-1,11-di(O-isobutyryl)-1,7,11-trideacetyl pyripyropene A [PRD056] | 27.2 | 21.1 | 8.1 | 56.4 | 30 | 44.8 | 34.5 | 15.2 | 6.4 | 56.1 | decreased depending on the concentration added |  |  |  | 
CC(C)c1c(C(=O)Nc2ccccc2)c(-c2ccccc2)c(-c2ccc(F)cc2)n1CC[C@@H](O)C[C@@H](O)CC(=O)O [Atr, atorvastatin, reference compound] | 49.4 | 129.3 | 90.0 | 268.7 | 273.8 | 682.5 | 63.2 | 136.1 | 97.6 | 296.8 |  | 175.6 | rather increased |  | 
CC(=O)OC[C@@]1(C)[C@@H]2C[C@H](OC(C)=O)[C@@]3(C)Oc4cc(-c5cccnc5)oc(=O)c4[C@H](O)[C@@H]3[C@@]2(C)CC[C@@H]1OC(C)=O [PPPA, pyripyropene A, reference compound] | 35.7 | 45.2 | 35.7 | 116.6 |  |  | 38.4 | 31.7 | 19.7 | 89.8 |  |  | no significant difference |  | 
CC(=O)OCC1(C)[C@@H](OC(C)=O)CC[C@]2(C)[C@H]3[C@@H](O)c4c(cc(-c5cccnc5)oc4=O)O[C@]3(C)[C@@H](OC(=O)c3ccc(C#N)cc3)C[C@@H]12 (stereo partly shown) [PRD017, 7-p-cyanobenzoyl-7-deacetyl pyripyropene A] | 40.3 | 28.3 | 11.7 | 80.3 | 44 | 46 | 29.4 | 22.0 | 6.6 | 58 | decreased depending on the concentration added |  |  |  | 
Cc1ccccc1[C@@H]1OCC2(C)C3C[C@H](OC(=O)c4ccc(C#N)cc4)[C@@]4(C)Oc5cc(-c6cccnc6)oc(=O)c5[C@H](O)C4[C@@]3(C)CC[C@@H]2O1 (stereo partly shown) [PRD125, 1,11-O-o-methylbenzylidene-7-O-p-cyanobenzoyl-1,7,11-trideacetyl pyripyropene A] | 20.7 | 23.0 | 12.8 | 56.5 | 41.6 |  | 23.6 | 20.7 | 10.4 | 54.7 | decreased depending on the concentration added |  |  | significantly reduced | markedly reduced
